The nature of data set [1]: Determination of log P values by HPLC on reversed-phase column (formic acid method). The note with it: reversed-phase C 18, acidic range (pH 3.4), formic acid eluents, 55° C.; for chromatographic logP: reversed-phase HPLC column (C 18), pH 3.4, HPLC, read-out: logP (HCOOH); for logP (HCOOH): HPLC. The class given is physicochemical. The protocol: 1) Description of Method for Determining the Log P Values (Formic Acid Method)
The log P values reported in the table were determined according to EEC-Directive 79/831 Annex V.A8 by HPLC (High Performance Liquid Chromatography) on a reversed-phase column (C 18). […]
Eluent A: acetonitrile+1 ml of formic acid/liter. Eluent B: water+0.9 ml of formic acid/liter.
Gradient: from 10% eluent A/90% eluent B to 95% eluent A/5% eluent B in 4.25 min
The calibration was effected with unbranched alkan-2-ones (with 3 to 16 carbon atoms), whose log P values are known (determination of the log P values on the basis of the retention times by linear interpolation between two successive alkanones). The lambda-max values were determined with reference to the UV spectra from 200 nm to 400 nm in the maxima of the chromatographic signals.

Data set [2] deals with green peach aphid (Myzus persicae). The experiment in a line: Myzus test. In kind it is in vivo. The note with it: application rate 500 g/ha, spray on Chinese cabbage leaf slices, read-out: efficacy (aphids killed). The protocol:
• Solvent: 78.0 parts by weight of acetone • 1.5 parts by weight of dimethylformamide • Emulsifier: 0.5 part by weight of alkylaryl polyglycol ether
To produce an appropriate active ingredient formulation, 1 part by weight of active ingredient is mixed with the amounts of solvent and emulsifier specified and the concentrate is diluted to the desired concentration with emulsifier-containing water.
Chinese cabbage leaf slices (Brassica pekinensis) infested by all stages of the green peach aphid (Myzus persicae) are sprayed with an active ingredient formulation of the desired concentration.
After the desired time, the efficacy in % is determined 100% means that all aphids have been killed; 0% means that no aphids have been killed.

This note sets out measurements from patent US9428487B2, “Heteroaromatic amides and thioamides as pesticides” (Bayer Intellectual Property GmbH, priority 2008, dated 2016).

In the case of `Cc1nc(Cl)sc1C(=O)NCC(F)(F)F`, the chromatographic logP in data set [1] was found to be 1.97.

As to `O=C(O)c1cnc(-c2cccnc2)s1` [2-pyridin-3-ylthiazole-5-carboxylic acid], the chromatographic logP in data set [1] turned out to be 0.42.

In the case of `Cc1nc(-c2cncc(F)c2)sc1C(=O)NCC(F)(F)F` [Compound 9], the chromatographic logP in data set [1] stood at 2.15. In data set [2], the pest or weed control at 500 g/ha is at least 70%.

Consider `Cc1nc(-c2cncc(F)c2)sc1C(=O)NCc1ncccn1` [Compound 10], for which, in data set [1], the chromatographic logP was found to be 1.39. Besides, the pest or weed control at 500 g/ha in data set [2] was at least 70%.

For the compound `Cn1nc(-c2cncc(F)c2)cc1C(=O)NCc1ncccn1` [Compound 11], the chromatographic logP in data set [1] was 1.24. For the same compound, in data set [2], the pest or weed control at 500 g/ha is at least 70%.

As to `Cn1nc(-c2cncc(F)c2)cc1C(=O)NCC(C)(F)F` [Compound 12], the chromatographic logP in data set [1] was found to be 1.89. For the same compound, in data set [2], the pest or weed control at 500 g/ha was at least 70%.

For the compound `C=CN(Cc1ncccn1)C(=O)c1cc(-c2cncc(F)c2)nn1C` [Compound 13], the chromatographic logP in data set [1] is 1.75. The pest or weed control at 500 g/ha in data set [2] was at least 70%.

Regarding `Cc1nc(-c2cncc(Cl)c2)sc1C(=O)NCC(F)(F)F` [Compound 14], the chromatographic logP in data set [1] came to 2.5. Moreover, in data set [2], the pest or weed control at 500 g/ha is at least 70%.

For the compound `Cc1nc(-c2cncc(Cl)c2)sc1C(=O)NCc1ncccn1` [Compound 15], the chromatographic logP in data set [1] stood at 1.69. Further, the pest or weed control at 500 g/ha in data set [2] was at least 70%.

Consider `Cc1nc(-c2cncc(Br)c2)sc1C(=O)NCC(F)(F)F` [Compound 16], for which the chromatographic logP in data set [1] came to 2.61. In addition, the pest or weed control at 500 g/ha in data set [2] is at least 70%.

On to `Cc1nc(-c2cncc(Cl)c2)sc1C(=O)N(C)C` [Compound 17], for which the chromatographic logP in data set [1] worked out at 1.8.

Consider `Cc1nc(-c2cncc(I)c2)sc1C(=O)NCc1ncccn1` [Compound 18], for which the chromatographic logP in data set [1] is 1.87.

In the case of `Cc1nc(-c2cncc(F)c2)sc1C(=O)N(C)C` [Compound 19], the chromatographic logP in data set [1] was found to be 1.49.

In the case of `Cc1nc(-c2cncc(I)c2)sc1C(=O)NCC(F)(F)F` [Compound 20], the chromatographic logP in data set [1] came to 2.75.

As to `Cc1nc(-c2cncnc2)sc1C(=O)N(C)CC(F)(F)F` [Compound 21], in data set [1], the chromatographic logP stood at 1.72. Also, the pest or weed control at 500 g/ha in data set [2] was at least 70%.

In the case of `Cc1nc(-c2cncnc2)sc1C(=O)NCc1ncccn1` [Compound 22], the chromatographic logP in data set [1] amounted to 1.05. Further, in data set [2], the pest or weed control at 500 g/ha is at least 70%.

Regarding `Cc1nc(-c2cncnc2)sc1C(=O)N(C)C` [Compound 23], the chromatographic logP in data set [1] came to 1.

On to `Cn1nc(-c2cccnc2)cc1C(=O)NCC(C)(F)F` [Compound 24], for which the chromatographic logP in data set [1] was found to be 0.91. For the same compound, the pest or weed control at 500 g/ha in data set [2] was at least 70%.

`Cn1nc(-c2cccnc2)cc1C(=O)NCC(F)F` [Compound 25]: the chromatographic logP in data set [1] came to 0.65. For the same compound, the pest or weed control at 500 g/ha in data set [2] was at least 70%.

For the compound `Cc1nc(CNC(=O)c2cc(-c3cccnc3)nn2C)no1` [Compound 26], in data set [1], the chromatographic logP is 0.54. The pest or weed control at 500 g/ha in data set [2] was at least 70%.

Regarding `CN(CC(C)(F)F)C(=O)c1cc(-c2cccnc2)nn1C` [Compound 27], the chromatographic logP in data set [1] was 0.99. Further, the pest or weed control at 500 g/ha in data set [2] was at least 70%.

On to `Cc1nc(-c2cccnc2)sc1C(=O)NC(C#N)C(C)C` (stereo not drawn) [Compound 64], for which the “logP (HCOOH)” value in data set [1] turned out to be 1.57.

Turning to `CSC[C@H](C)NC(=O)c1sc(-c2cccnc2)nc1C` [Compound 68], the “logP (HCOOH)” value in data set [1] turned out to be 1.65.

For `Cc1nc(-c2cccnc2)sc1C(=O)NCC(C)F` (stereo not drawn) [Compound 76], the “logP (HCOOH)” value in data set [1] was determined as 1.13.

Regarding `Cc1nc(-c2cncc(Cl)c2)sc1C(=O)N(C)CC(F)(F)F` [Preparation Example 2], the chromatographic logP in data set [1] came to 2.72.

Take `CON(C)C(=O)c1cc(-c2cccnc2)nn1C` [Preparation Example 6]: the chromatographic logP in data set [1] came out at 0.49.

As for `CCOC(=O)c1cnc(-c2cccnc2)s1` [ethyl 2-pyridin-3-ylthiazole-5-carboxylate], the chromatographic logP in data set [1] was 1.93.

For the compound `CCOC(=O)c1nnc(-c2cccnc2)s1` [ethyl 5-pyridin-3-yl[1,3,4]thiadiazole-2-carboxylate], the chromatographic logP in data set [1] was 1.41.
